Key:
human DGAT1 = molecular target: T1, human DGAT1 (Homo sapiens, UniProt O75907); assay: DGAT Scintillation Proximity Assay (SPA) with membranes of insect cells expressing human flagtag DGAT1; format: biochemical; conditions: read-out: hDGAT1 IC50
T1 construct: made in house; host or cells: insect cells (sf9, sf21 or High Five) infected with baculovirus; total cell membranes
T1 sequence (O75907 1-488): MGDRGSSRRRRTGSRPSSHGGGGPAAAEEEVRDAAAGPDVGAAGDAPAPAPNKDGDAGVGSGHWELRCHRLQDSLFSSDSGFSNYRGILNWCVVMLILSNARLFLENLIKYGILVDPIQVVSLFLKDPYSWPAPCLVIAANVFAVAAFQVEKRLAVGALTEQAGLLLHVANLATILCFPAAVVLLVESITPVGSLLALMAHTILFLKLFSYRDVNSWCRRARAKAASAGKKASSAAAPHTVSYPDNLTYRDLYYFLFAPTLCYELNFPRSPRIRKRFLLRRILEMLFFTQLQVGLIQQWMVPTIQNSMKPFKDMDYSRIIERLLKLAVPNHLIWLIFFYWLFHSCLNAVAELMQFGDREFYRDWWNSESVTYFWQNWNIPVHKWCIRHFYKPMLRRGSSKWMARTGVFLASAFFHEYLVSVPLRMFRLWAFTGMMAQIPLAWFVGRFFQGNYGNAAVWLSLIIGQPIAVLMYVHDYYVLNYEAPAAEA
In short: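 Membranes (0.2 μg/well) from insect cells expressing human flag-tagged DGAT1 incubated with 10 μM compound and 200 μM dioleoyl glycerol substrate; mercuric chloride as inhibition control. Reaction stopped with WGA SPA beads in mercuric chloride, overnight bead coupling, then scintillation proximity signal read.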

SMILES	IC50 (human DGAT1) [nM]	melting point [°C]
CC1(C)Oc2ncnc(N)c2N=C1c1ccc([C@H]2CC[C@H](Cc3cc(O)[nH]n3)CC2)cc1 [Example 2-59]	10 to 100	> 250
CC1(C)Oc2ncnc(N)c2N=C1c1ccc([C@H]2CC[C@H](Cc3cc(O)on3)CC2)cc1 [Example 2-60]	10 to 100	173 to 175
CC1(C)Oc2ncnc(N)c2N=C1c1ccc([C@H]2CC[C@H](CNC(=O)OCc3ccccc3)CC2)cc1 [Example 2-61]	10 to 100	159 to 162
CC1(C)Oc2ncnc(N)c2N=C1c1ccc([C@H]2CC[C@H](OCC(=O)O)CC2)cc1 [Example 2-62]	10 to 100	> 230
CC1(C)Oc2ncnc(N)c2N=C1c1ccc([C@H]2CC[C@H](CC3SC(=O)NC3=O)CC2)cc1 (stereo partly drawn) [Example 2-64]	10 to 100	> 230
CC(C)(NC(=O)C[C@H]1CC[C@H](c2ccc(C3=Nc4c(N)ncnc4OC3(C)C)cc2)CC1)C(=O)O [Example 2-65]	< 10	243 to 244
CC1(C)Oc2ncnc(N)c2N=C1c1ccc2c(c1)CCCC2 [Example 2-66]	> 100	176 to 177
CC1(C)Oc2ncnc(N)c2N=C1c1ccc(C2(C)CCC(CC(=O)O)CC2)cc1 (stereo not drawn) [Example 2-67]	10 to 100	> 250
CC1(C)Oc2ncnc(N)c2N=C1c1ccc2c(c1)C(CC(=O)O)CCC2 (stereo not drawn) [Example 2-68]	> 100	> 250
CC(C(=O)O)[C@H]1CC[C@H](c2ccc(C3=Nc4c(N)ncnc4OC3(C)C)cc2)CC1 (stereo partly drawn) [Example 2-69]	< 10	> 250
CC1(C)Oc2ncnc(N)c2N=C1c1ccc([C@H]2CC[C@H](CN3CC(=O)NC3=O)CC2)cc1 [Example 2-70]	10 to 100	212 to 214
CC1(C)Oc2ncnc(N)c2N=C1c1ccc2c(c1)CC(C(=O)O)C2 (stereo not drawn) [Example 2-71]	> 100	> 250
CC1(C)Oc2ncnc(N)c2N=C1c1ccc2c(c1)CC(CC(=O)O)C2 (stereo not drawn) [Example 2-72]	10 to 100	> 250
CC(C)(NC(=O)C[C@H]1CC[C@H](c2ccc(C3Nc4c(N)ncnc4OC3(C)C)cc2)CC1)C(=O)O (stereo partly drawn) [Example 2-73]	10 to 100	> 250
CC1(C)Oc2ncnc(N)c2NC1(C)c1ccc(C2CCCCC2)cc1 (stereo not drawn) [Example 2-75]	> 100	244 to 245
CC1(C)Oc2ncnc(N)c2NC1c1ccc([C@H]2CC[C@H](Cc3nn[nH]n3)CC2)cc1 (stereo partly drawn) [Example 2-76]	10 to 100	> 250
CC1(C)Oc2ncnc(N)c2N=C1c1ccc([C@H]2CC[C@H](CC(=O)N3CCC(O)CC3)CC2)cc1 [Example 2-77]	10 to 100	137 to 139
CC(C)(O)C[C@H]1CC[C@H](c2ccc(C3=Nc4c(N)ncnc4OC3(C)C)cc2)CC1 [Example 2-78]	10 to 100	185 to 187
CC1(C)Oc2ncnc(N)c2N=C1c1ccc([C@H]2CC[C@H](CCO)CC2)cc1 [Example 2-79]	10 to 100	207 to 208
CC1(C)Oc2ncnc(N)c2N=C1c1ccc([C@H]2CC[C@H](CC(O)C(F)(F)F)CC2)cc1 (stereo partly drawn) [Example 2-80]	10 to 100	271 to 272
CC1(C)Oc2ncnc(N)c2N=C1c1ccc([C@H]2CC[C@H](CCN3CCCCC3)CC2)cc1 [Example 2-82]	> 100	209 to 210
CC1(C)Oc2ncnc(N)c2N=C1c1ccc([C@H]2CC[C@H](CCN3CCCC3)CC2)cc1 [Example 2-83]	> 100	142 to 143
CC1(C)Oc2ncnc(N)c2N=C1c1ccc([C@H]2CC[C@H](CCN3CCC(O)CC3)CC2)cc1 [Example 2-84]	> 100	217 to 218
CC1(C)Oc2ncnc(N)c2N=C1c1ccc([C@H]2CC[C@H](CCN3CCC(O)(c4ccccc4)CC3)CC2)cc1 [Example 2-85]	> 100	115 to 116
CC1(C)Oc2ncnc(N)c2N=C1c1ccc([C@H]2CC[C@H](CCN3CCC(Cc4ccccc4)CC3)CC2)cc1 [Example 2-86]	> 100	190 to 191
CC1(C)Oc2ncnc(N)c2N=C1c1ccc([C@H]2CC[C@H](CCN3CCC(CCO)CC3)CC2)cc1 [Example 2-87]	> 100	221 to 222
CC1(C)Oc2ncnc(N)c2N=C1c1ccc([C@H]2CC[C@H](CCN3CCN(Cc4ccccc4)CC3)CC2)cc1 [Example 2-88]	> 100	175 to 176

More lines, now with the values ahead:

IC50 (human DGAT1) [nM]	melting point [°C]	SMILES
10 to 100	113 to 115	CN1CCN(C(=O)C[C@H]2CC[C@H](c3ccc(C4=Nc5c(N)ncnc5OC4(C)C)cc3)CC2)CC1 [Example 2-92]
10 to 100	146 to 147	CC1(C)Oc2ncnc(N)c2N=C1c1ccc([C@H]2CC[C@H](CC(=O)N3CCCCC3)CC2)cc1 [Example 2-93]
10 to 100	232 to 233	CC1(C)Oc2ncnc(N)c2N=C1c1ccc([C@H]2CC[C@H](CC(=O)N3CCCC3)CC2)cc1 [Example 2-94]
10 to 100	199 to 200	CC1(C)Oc2ncnc(N)c2N=C1c1ccc([C@H]2CC[C@H](CC(=O)N3CCOCC3)CC2)cc1 [Example 2-95]
10 to 100	112 to 113	CC1(C)Oc2ncnc(N)c2N=C1c1ccc([C@H]2CC[C@H](CC(=O)N3CCC(CCO)CC3)CC2)cc1 [Example 2-96]
10 to 100	225 to 226	CC1(C)Oc2ncnc(N)c2N=C1c1ccc([C@H]2CC[C@H](CC(=O)N3CCN(CCO)CC3)CC2)cc1 [Example 2-97]
10 to 100	131 to 133	CC(C)(CO)NC(=O)C[C@H]1CC[C@H](c2ccc(C3=Nc4c(N)ncnc4OC3(C)C)cc2)CC1 [Example 2-98]
10 to 100	113 to 115	CN(CCO)C(=O)C[C@H]1CC[C@H](c2ccc(C3=Nc4c(N)ncnc4OC3(C)C)cc2)CC1 [Example 2-99]
10 to 100	184 to 185	CC1(C)Oc2ncnc(N)c2N=C1c1ccc([C@H]2CC[C@H](CC(=O)N3CCC[C@H]3CO)CC2)cc1 [Example 2-100]
10 to 100	237 to 239	CC1(C)Oc2ncnc(N)c2N=C1c1ccc([C@H]2CC[C@H](CC(=O)N3CCC(O)C3)CC2)cc1 (stereo partly drawn) [Example 2-101]
10 to 100	214 to 215	CCCNC(=O)C[C@H]1CC[C@H](c2ccc(C3=Nc4c(N)ncnc4OC3(C)C)cc2)CC1 [Example 2-102]
10 to 100	231 to 232	CC1(C)Oc2ncnc(N)c2N=C1c1ccc([C@H]2CC[C@H](CC(=O)N3CC[C@@H](O)C3)CC2)cc1 [Example 2-103]
10 to 100	186 to 188	CN(CC[C@H]1CC[C@H](c2ccc(C3=Nc4c(N)ncnc4OC3(C)C)cc2)CC1)C(=O)CO [Example 2-104]
10 to 100	> 250	CN(C(=O)CO)[C@H]1CC[C@H](c2ccc(C3=Nc4c(N)ncnc4OC3(C)C)cc2)CC1 [Example 2-105]
10 to 100	250 to 252	CC1(C)Oc2ncnc(N)c2N=C1c1ccc([C@H]2CC[C@H](CC(=O)N3C[C@@H](O)[C@@H](O)C3)CC2)cc1 [Example 2-106]
10 to 100	202 to 203	CC1(C)Oc2ncnc(N)c2N=C1c1ccc([C@H]2CC[C@H](Cn3ccnc3)CC2)cc1 [Example 2-108]
10 to 100	> 230	CC1(C)Oc2ncnc(N)c2N=C1c1ccc([C@H]2CC[C@H](Cc3nc4ccccc4[nH]3)CC2)cc1 [Example 2-109]
10 to 100	155 to 156	CC1(C)Oc2ncnc(N)c2N=C1c1ccc([C@H]2CC[C@H](CC(=O)CO)CC2)cc1 [Example 2-110]
10 to 100	> 250	CC1(C)Oc2ncnc(N)c2N=C1c1ccc([C@H]2CC[C@H](CC(=O)N3CCNCC3)CC2)cc1.Cl.Cl [Example 2-111]
10 to 100	> 250	CC1(C)Oc2ncnc(N)c2N=C1c1ccc([C@H]2CC[C@H](SCC(=O)O)CC2)cc1 [Example 2-112]
10 to 100	172 to 173	Cc1ncc(C[C@H]2CC[C@H](c3ccc(C4=Nc5c(N)ncnc5OC4(C)C)cc3)CC2)[nH]1 [Example 2-113]
10 to 100	250	CC(C)NC[C@H]1CC[C@H](c2ccc(C3=Nc4c(N)ncnc4OC3(C)C)cc2)CC1 [Example 2-114]
> 100	127 to 135	CCOC(=O)N1CCC(NC[C@H]2CC[C@H](c3ccc(C4=Nc5c(N)ncnc5OC4(C)C)cc3)CC2)CC1 [Example 2-115]
10 to 100	> 250	CC1(C)Oc2ncnc(N)c2N=C1c1ccc([C@H]2CC[C@H](CN[C@H]3CC[C@H](O)CC3)CC2)cc1 [Example 2-116]
